Tests used:
[1] = system: dextran-labeled electroporated cells; test: Change in number of dextran-labeled cells after electroporation with peptide; type: cell-based; details: for % change in cell number: dextran-labeled cells counted before and after 18 hrs incubation
Protocol: Electroporated cells were treated with fluorescent dextran plus peptide so those cells receiving the peptide could be identified. Typically a very small number of cells successfully incorporate substance during electroporation, making it difficult to identify those receiving peptide. Typically one sees 10-20% incorporation. But, there is good evidence showing that if a cell incorporates one component in buffer, it will incorporate all components. Thus, dextran can be used to identify those cells receiving peptide. After electroporation of cells with fluorescent dextran and the active peptide SEQ ID NO: 12, the dextran-labeled cells were initially counted and then incubated for 18 hrs. After incubation overnight, the dextran-labeled cells were once again counted. The following Tables 4 and 5 show the average change in dextran-labeled cells after the cells are electroporated and the peptide has invaded the cell body. The cell numbers of the SS12 treated peptide seemed to fluctuate after incubation with various concentrations of the SS12 peptide.

actin/pyrene-actin = actin/pyrene-actin (Oryctolagus cuniculus, UniProt P68135); test: Actin/pyrene-actin polymerization fluorescence (nucleating or capping activity); type: biochemical; details: time-dependent fluorescence increase; data not shown
From the text: Upon binding to ActA, the Arp2/3 complex has enhanced nucleating activity for actin polymerization (Skoble J, Portnoy D A, Welch M D, Three regions within ActA promote Arp2/3 complex-mediated actin nucleation and Listeria monocytogenes motility; J Cell Biol. […] Aug. 7; 150(3):527-38). We tested a possible involvement of the homologous sequence on nucleating or capping activity by following the time-dependent fluorescence increase upon actin/pyrene-actin polymerization in the presence of the synthetic peptide SS12.

## GIVRKWISRFEVWPYL (SS12 active synthetic peptide)
[1]; compared with SS1 control peptide-treated cells
  increase in cell population after incubation: did not exhibit the expected increase in cell population
[1]
  % change in cell number: −12.5%
[1]; peptide concentration 0.2 μM
  % change in cell number: +13.21%
[1]; peptide concentration 1.0 μM
  % change in cell number: −1.5%
[1]; peptide concentration 10.0 μM
  % change in cell number: −8.6%
actin/pyrene-actin
  nucleating or capping activity: did not show any nucleating or capping activity

Reference: patent publication US8039438B2, “Synthetic peptides that cause F-actin bundling and block actin depolymerization” (The Regents of the University of California, priority 2003, dated 2011)
